The values below come from US7563791B2, “Pyrrolotriazine derivatives useful for treating hyper-proliferative disorders and diseases associated with angiogenesis” (Bayer Pharmaceuticals Corporation, priority 2004, dated 2009).

Holding throughout (type): cell-based
For test [1], the system named is histone 3 phosphorylation in colon carcinoma (HCT116). As to the kind of experiment: p-Histone3 assay: inhibition of histone 3 phosphorylation in HCT116. As to conditions: Homo sapiens, HCT-116, 24 h, HCT116, 24 hours compound treatment. Here is the method:
Compounds were assayed for the inhibition of histone 3 phosphorylation in colon carcinoma (HCT116). Briefly, 20,000 cells/well were seeded in a 96-well black-walled, poly-d-lysine plates in RPMI+10% FBS and incubated at 37° C. in 5% CO2 overnight. The following day, the cells were treated with compounds for 24 hours at 37° C. Following compound treatment; plates were centrifuged at 1000 rpm for 2 minutes and washed twice with 100 μl of cold sterile TBS. Cells were then fixed with cold 3.7% formaldehyde in TBS (4° C. for 1 hour) and then permeabolized with 0.1% Triton-X-100 in TBS (room temperature for 30 minutes). Plates were then washed with of 0.25% BSA-TBS and blocked with BSA solution for 1 hour at room temperature while shaking. The supernatant was removed and replaced with diluted primary antibody (anti-phospho-histone 3, serine 10, Cell Signaling) at 1:250 in 0.25% BSA-TBS and incubated overnight at 4° C. The plates were washed and treated with diluted secondary antibody (anti-rabbit Eu-labeled) at 1:10000 in 0.25% BSA-TBS (room temperature for 1 hour). The antibody solution was removed from each well and washed eight times. The wash buffer was replaced with 50 μl pre-warmed enhancement solution and mixed on the orbital shaker for 10 minutes. Fluorescence was detected with a Victor V Fluorescence Detector. The data are expressed as percent inhibition: % inhibition=100−((Signal with inhibitor-background)/(Signal without inhibitor-background))×100.

Test [2] deals with FGFR stimulated HUVEC proliferation. Nature of the test: BRDU growth factor stimulated proliferation of HUVEC (bFGF stimulation). As to conditions: Homo sapiens, 72 h, 1.5 ng/ml bFGF, 3 days, BrdU incorporation. Here is the method:
(§1) BRDU Growth Factor Stimulated Proliferation of HUVEC
(§2) Exponentially growing human umbilical vein endothelial cells (HUVEC; Cat# CC-2519A, Cambrex, Walkersville, Md.) were seeded at two thousand cells/well into Collagen IV-coated 96 well plates (Cat#35-4429, Becton Dickinson, Bedford, Mass.) in assay media containing RPMI-1640 (Cat#11875-093, Gibco, Carlsbad, Calif.), 0.5% charcoal-stripped serum (Cat# SH30068.03, HyClone, Logan, Utah), and 1% N-2 supplement (Cat#17502-048, Gibco, Carlsbad, Calif.). Fours hours after incubating the plates at 37° C. in 5% CO2, the cells were treated with different concentrations of compound (diluted in assay media with a final DMSO concentration=0.1%) and then were immediately stimulated with 80 ng/ml of vascular endothelial growth factor (VEGF, Cat#100-20, PeproTech, Rocky Hill, N.J.) or 1.5 ng/ml of basic fibroblast growth factor (bFGF, Catt#100-18B, PeproTech, Rocky Hill, N.J.). Treated cells were incubated for 3 days at 37° C. in 5% CO2. DNA synthesis was measured via the incorporation of bromodeoxyuridine (BrdU) into newly synthesized DNA using the Amersham Cell Proliferation BioTrack ELISA system (Cat# RPN250, Amersham, Piscataway, N.J.). Diluted BrdU solution (20 μl of stock BrdU diluted 1:20 fold into assay media) was added to each well and incubation proceeded for 6 hours at 37° C. in 5% CO2. The media was removed and the cells were fixed according to the specifications of the Amersham assay kit for 30 minutes at room temperature. After removing the fixative, blocking buffer (supplied by Amersham kit; 200 μl/well) was added and the plates were stored at 4° C. overnight. The blocking buffer was aspirated and peroxidase-labeled anti-BrdU antibody (supplied by Amersham kit; 100 μl/well) was added and incubated for 3 hours at room temperature. The plates were washed three times with wash buffer (supplied by Amersham kit; 300 μl/well/wash). Immediately following the washes, 100 μl of the TMB-substrate was dispensed into each well and the plates were further incubated for 30 minutes at room temperature. The reaction was terminated by the addition of 25 μl of 1M H2SO4. Plates were read immediately at 450 nm using a SpectraMAX 250 spectrophotometer plate reader (Molecular Devices, Sunnyvale, Calif.). The software utilized was SoftMAX pro v.2.4.1.
Background: Incorporation of labelled thymidine or its analogues reports DNA synthesis.

Test [3] has as its system VEGFR stimulated HUVEC proliferation. Nature of the test: BRDU growth factor stimulated proliferation of HUVEC (VEGF stimulation). The following applies: Homo sapiens, 72 h, 80 ng/ml VEGF, 3 days, BrdU incorporation. The procedure: as §1, §2
In test [4] the test system is VEGF stimulated Phospho-ERK in HUVEC. As to the kind of experiment: Growth factor stimulated p-ERK assay in HUVECs (VEGF stimulation, ERK1/2 Bioplex). As to conditions: Homo sapiens, compound 2 hrs, then 50 ng/ml VEGF 10 min; for inhibition at 0.1 µM: @ 100 nM. An outline of the steps:
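HUVECs in serum-free RPMI 1640/0.1% BSA pretreated with compound 2 hrs, then stimulated 10 min with 50 ng/ml VEGF (or bFGF). Lysate phospho-ERK1/2 quantified by bead-based Bio-Plex immunoassay on Luminex.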

For a further test, the system named is HCT116 cells. Nature of the test: Tumor cell proliferation (Alamar Blue), HCT116. The following applies: Homo sapiens, HCT-116, 72 h. An outline of the steps:
(§3)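 Cells seeded at 3.0×10^3/well in RPMI with 10% FBS for 16 h, then treated with compound (added medium held 40 μM to 18 nM compound, 0.4% DMSO) for 72 h at 37 °C, 5% CO2. Viability by Alamar Blue, 3 h, fluorescence 544/590 nm. IC50 by linear regression of log concentration versus percent inhibition.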
(The colour change of resazurin is a common sign of viable cells or microbes.)

For the next test, the system named is MDA-MB-231 cells. Nature of the test: Tumor cell proliferation (Alamar Blue), MDA-MB-231. The following applies: Homo sapiens, MDA-MB-231, 72 h. An outline of the steps: as §3

As a reminder, the IC50 is the midpoint of a concentration-inhibition curve. A lower IC50 goes with higher potency. A word on the inhibition: it is the drop in the measured response relative to a control, in per cent. The low end stands for little suppression, the high end for strong suppression.

Molecules are shown by their SMILES.

As for `CCOC(=O)c1cn2ncnc(N)c2c1-c1ccc(NC(=O)Nc2ccccc2C(F)(F)F)cc1` [Example 7, ethyl 4-amino-5-{4-[({[2-(trifluoromethyl)phenyl]amino}carbonyl)amino]phenyl}pyrrolo[2,1-f][1,2,4]triazine-6-carboxylate], the IC50 was over 0.5 µM in test [1] and under 1 µM in test [1] (bound given in μM).

`CCOC(=O)c1cn2ncnc(N)c2c1-c1ccc(NC(=O)Nc2ccc3c(c2)OCO3)cc1` [Example 13, ethyl 4-amino-5-(4-{[(1,3-benzodioxol-5-ylamino)carbonyl]amino}phenyl)pyrrolo[2,1-f][1,2,4]triazine-6-carboxylate]: the values for the IC50 in test [1] and in test [1] (bound given in μM) were over 0.5 µM and under 1 µM, respectively.

As to `Nc1ncnn2cc(C(=O)NCC(F)(F)F)c(-c3ccc(NC(=O)Nc4cc(C(F)(F)F)ccc4F)cc3)c12` [Example 70, 4-amino-5-{4-[({[2-fluoro-5-(trifluoromethyl)phenyl]amino}carbonyl)amino]phenyl}-N-(2,2,2-trifluoroethyl)pyrrolo[2,1-f][1,2,4]triazine-6-carboxamide], the IC50 in test [2] is under 0.1 µM; in test [3], under 10 nM; with HCT116 cells it was under 0.5 µM; in the test with MDA-MB-231 cells, under 0.5 µM. The inhibition at 0.1 µM in test [4] is over 50%.

Molecule `Nc1ncnn2cc(C(=O)NCC(F)(F)F)c(-c3ccc(NC(=O)Nc4ccc(F)c(C(F)(F)F)c4)cc3)c12` [Example 88, 4-amino-5-{4-[({[4-fluoro-3-(trifluoromethyl)phenyl]amino}carbonyl)amino]phenyl}-N-(2,2,2-trifluoroethyl)pyrrolo[2,1-f][1,2,4]triazine-6-carboxamide] yielded an IC50 in test [1] of under 0.5 µM.

`Nc1ncnn2cc(C(=O)NCC(F)(F)F)c(-c3ccc(NC(=O)Nc4cccc(CC(F)(F)F)c4)cc3)c12` [Example 92, 4-amino-N-(2,2,2-trifluoroethyl)-5-{4-[({[3-(2,2,2-trifluoroethyl)phenyl]amino}carbonyl)amino]phenyl}pyrrolo[2,1-f][1,2,4]triazine-6-carboxamide] returned an IC50 in test [1] of under 0.5 µM.

In the case of `N#Cc1cn2ncnc(N)c2c1-c1ccc(NC(=O)Nc2cc(C(F)(F)F)ccc2F)cc1` [Example 99, N-[4-(4-amino-6-cyanopyrrolo[2,1-f][1,2,4]triazin-5-yl)phenyl]-N′-[2-fluoro-5-(trifluoromethyl)phenyl]urea], the IC50 in test [2] was under 0.1 µM; in test [3], 100 to 500 nM; in the test with HCT116 cells (bounds given in μM), 1.5 to 5 µM; in the test on MDA-MB-231 cells it was over 0.5 µM; in the test on MDA-MB-231 cells (bounds given in μM) it was under 1.5 µM. In test [4], this molecule displayed an inhibition at 0.1 µM of under 50%. In test [4] (@ 1 μM), this molecule had an inhibition at 1 µM of over 50%.

The molecule `Nc1ncnn2cc(C(=O)NCC(F)(F)F)c(-c3ccc(NC(=O)Nc4cccc(C(F)(F)F)n4)cc3)c12` [Example 139, 4-amino-N-(2,2,2-trifluoroethyl)-5-{4-[({[6-(trifluoromethyl)pyridin-2-yl]amino}carbonyl)amino]phenyl}pyrrolo[2,1-f][1,2,4]triazine-6-carboxamide] returned an IC50 in test [1] of under 0.5 µM.

Turning to `CC(C)(C)NC(=O)c1cn2ncnc(N)c2c1-c1ccc(NC(=O)Nc2cccc(C(F)(F)F)n2)cc1` [Example 164, 4-amino-N-(tert-butyl)-5-{4-[({[6-(trifluoromethyl)pyridin-2-yl]amino}carbonyl)amino]phenyl}pyrrolo[2,1-f][1,2,4]triazine-6-carboxamide], the IC50 in test [1] was under 0.5 µM.

In the case of `CC(C)(C)CNC(=O)c1cn2ncnc(N)c2c1-c1ccc(NC(=O)Nc2cccc(C(F)(F)F)n2)cc1` [Example 165, 4-amino-N-(2,2-dimethylpropyl)-5-{4-[({[6-(trifluoromethyl)pyridin-2-yl]amino}carbonyl)amino]phenyl}pyrrolo[2,1-f][1,2,4]triazine-6-carboxamide], the IC50 in test [1] was under 0.5 µM.

Take `Nc1ncnn2cc(-c3nc(CO)co3)c(-c3ccc(NC(=O)Nc4cc(C(F)(F)F)ccn4)cc3)c12` [Example 234, N-(4-{4-amino-6-[4-(hydroxymethyl)-1,3-oxazol-2-yl]pyrrolo[2,1-f][1,2,4]triazin-5-yl}phenyl)-N′-[4-(trifluoromethyl)pyridin-2-yl]urea]: the IC50 in test [2] is 0.1 to 0.5 µM; in test [3], 10 to 100 nM; in the test on HCT116 cells (bounds given in μM), 1.5 to 5 µM; with MDA-MB-231 cells (bounds given in μM) it was 1.5 to 5 µM.

Turning to `CC(C)(C)c1cc(NC(=O)Nc2ccc(-c3c(CO)cn4ncnc(N)c34)cc2)n(-c2ccc(F)cc2)n1` [Example 239, N-{4-[4-amino-6-(hydroxymethyl)pyrrolo[2,1-f][1,2,4]triazin-5-yl]phenyl}-N′-[3-tert-butyl-1-(4-fluorophenyl)-1H-pyrazol-5-yl]urea], the IC50 is 0.1 to 0.5 µM in test [2]; 10 to 100 nM in test [3]; over 0.5 µM in the test with HCT116 cells; under 1.5 µM with HCT116 cells (bounds given in μM); over 0.5 µM with MDA-MB-231 cells; under 1.5 µM in the test with MDA-MB-231 cells (bounds given in μM).

On to `N#CCc1cn2ncnc(N)c2c1-c1ccc(NC(=O)Nc2cc(C(F)(F)F)ccc2F)cc1` [Example 240, N-{4-[4-amino-6-(cyanomethyl)pyrrolo[2,1-f][1,2,4]triazin-5-yl]phenyl}-N′-[2-fluoro-5-(trifluoromethyl)phenyl]urea], for which the IC50 was over 0.5 µM in test [2]; under 1 µM in test [2] (bound given in μM); 100 to 500 nM in test [3]; 1.5 to 5 µM with HCT116 cells (bounds given in μM); 1.5 to 5 µM in the test with MDA-MB-231 cells (bounds given in μM).

Turning to `Nc1ncnn2cc(CO)c(-c3ccc(NC(=O)Nc4cc(C(F)(F)F)ccn4)c(F)c3)c12` [Example 243, N-{4-[4-amino-6-(hydroxymethyl)pyrrolo[2,1-f][1,2,4]triazin-5-yl]-2-fluorophenyl}-N′-[4-(trifluoromethyl)pyridin-2-yl]urea], the IC50 in test [2] was 0.1 to 0.5 µM; in test [3] it was 10 to 100 nM; in the test on HCT116 cells (bounds given in μM), 1.5 to 5 µM; with MDA-MB-231 cells (bounds given in μM) it was 1.5 to 5 µM.

Take `COCc1cn2ncnc(N)c2c1-c1ccc(NC(=O)Nc2cc(C(F)(F)F)ccn2)c(F)c1` [Example 247, N-{4-[4-amino-6-(methoxymethyl)pyrrolo[2,1-f][1,2,4]triazin-5-yl]-2-fluorophenyl}-N′-[4-(trifluoromethyl)pyridin-2-yl]urea]: the IC50 lay within 0.1 to 0.5 µM in test [2], 100 to 500 nM in test [3], 1.5 to 5 µM in the test on HCT116 cells (bounds given in μM) and 1.5 to 5 µM in the test on MDA-MB-231 cells (bounds given in μM).
